In patent publication US5482975A, “Adenosine diphosphoribose polymerase binding nitroso aromatic compounds useful as retroviral inactivating agents, anti-retroviral agents and anti-tumor agents” (priority 1993, dated 1996):
“Also recorded” adds a separate entry of the source.

Assays:
anti-tumor and anti-HIV = test: biological action of nitroso compounds (anti-tumor and anti-HIV, summary); type: cell-based; conditions: effective even after exposure of cells as short as 30 minutes
H9 cells = test: [3H] thymidine uptake, H9 cells (FIG. 2B); type: cell-based, human; conditions: 250 μM; 10% FCS
HIV-1 = test: inhibition of HIV infection, virus titer in stimulated human lymphoblasts; type: cell-based; conditions: 10 μM; 30 min exposure, day 10; virus alone 5.25
Description: VIII. Anti-HIV action of NOBP, NOBA and NOQ on stimulated human lymphoblasts.
Exposure to the two drugs was only for 30 minutes at the commencement of viral infection, and drugs were never re-added. The results given in Table III provide the ID50 of HIV titer 10 days after infection of cell cultures with HIV.

[1] = molecular target: T1, Zn(HIV1-F1) oligonucleotide complex (Human immunodeficiency virus type 1 lw12.3 isolate, UniProt Q70622); test: NMR study of Zn(HIV1-F1) nucleic acid binding; type: biochemical, HIV-1; conditions: two equivalents NOBA
T1 construct: NC cut from Gag polyprotein (Pr55Gag)
Excerpt: The downfield regions of the spectra show the signals of the aromatic and ribose H1' protons, and the upfield region contain signals of the methyl group protons. Dramatic spectral changes occur upon addition of oligonucleotide to Zn(HIV1-F1), including large upfield shifts of the Phe 2 and Ile 10 side chain=n signals and a downfield shifting and broadening of the guanosine-H8 proton signal (second from the top).
The reaction mechanism, schematically illustrated in FIG. 12, is consistent with the result of NMR analysis in FIGS. 10 and 11. The reaction mechanism proposed in FIG. 12 is a useful model but is not intended to limit the scope of the claimed invention.

[2] = tested on: normal cells (neutrophil leukocytes and bone marrow or peripheral blood cells); test: viability / functions of normal cells in presence of compounds
Description: (§1) Experiments were performed in which the functions of various cancer cells (855-2 and HL-60 leukemia cells, D32, D37 and CRL 7712 glioblastoma cell lines, 186 medulla tumor cell line, L1210 murine leukemia cell line, MDA-468 human breast tumor cell line) and normal cells (neutrophil leukocytes and bone marrow or peripheral blood stream cells) were assessed in the absence or presence of the compounds.

855-2 cells = test: cytocidal activity, MTT assay; type: cell-based, human; conditions: 10 μM; 100,000 cells/ml
Description: MTT (3-[4,5-[…]]-2,5-diphenyltetrazolium bromide) at 1 mg/ml was then added for 16 hours. The absorbance of the pelleted cell was then measured at 550 nm after adding DMSO to solubilze the cells.

Human Neutrophils = test: superoxide generation by human neutrophils; conditions: 10 μM
[3] = tested on: human leukemia cell lines (855-2, H9, HL-60, K562); test: [3H] thymidine uptake, human leukemia cell lines together; type: cell-based; conditions: 10 μM; each of the cell lines tested
[4] = tested on: normal rhesus bone marrow stem cells; test: CFU stem cell toxicity assay (FIG. 5A); conditions: 10 μM
[5] = tested on: HIV-1 (MN strain) virions; test: zinc loss from HIV-1 virions; type: biochemical
Description: Experiments were performed to determine if NOBA is capable of ejecting zinc from intact virions. HIV-1(MN strain) was produced, purified and concentrated as described in Bess et al., J. Virol. 66:840-847 (1992). The concentrated virus was diluted to 60 times that of culture fluid in TNE buffer (0.01 M Tris-HCl, 0.1M NaCl, 1 mM EDTA, pH 7.2) and incubated with 3000 or 6000 μM NOBA at 37° C. The virus was then pelleted and washed with TNE buffer to remove weakly bound zinc. The quantity of zinc in the resulting viral pellets was determined as described in Bess et al., J. Virol. 66:840-847 (1992).

[6] = tested on: various cancer cells (855-2, HL-60, D32, D37, CRL 7712, 186 medulla, L1210, MDA-468); test: functions of various cancer cells in presence of compounds (FIGS. 4-9); type: cell-based; conditions: summary statement
Description: as §1

Zn(HIV1-F1) = Zn(HIV1-F1) (Human immunodeficiency virus type 1 lw12.3 isolate, UniProt Q70622); test: NMR study of Zn ejection from HIV-1 NC zinc finger peptide; type: biochemical; set-up: parent Gag (Gag-Pol) polyprotein
Description: The * and + symbols denote the aromatic proton signals of the zinc-coordinated and zinc-free His 9 residue. Upon completion of the reaction, reflected by complete ejection of zinc (t=90 min), 50% of the NOBA remained unreacted indicating a 1:1 reaction stoichiometry. NOBA (3-nitrosobenzamide), was synthesized described elsewhere in this application.
To determine if NOBA is capable of ejecting zinc from retroviral-type zinc fingers, NMR studies were performed on a peptide with amino acid sequence corresponding to the N-terminal CCHC zinc finger of the HIV-1 NC protein, Zn(HIV1-F1), South, et al., J. Am. Chem. Soc. 111:395-396 (1989), South, et al., Biochem Pharm. 40:123-129 (1990 ), Summers, et al., Biochemistry 29:329-340 (1990). NMR spectra of Zn(HIV-F1) were performed before and after the addition of NOBA (3-nitrosobenzamide). […] Chem Soc. 111:395-396 (1989), and three-dimensional structural studies have shown that the peptide adopts a structure that is essentially identical to the structure of the corresponding region in the intact NC protein, South, et al., Biochemistry 29:7786-7789 (1990). The down-field region of the ^1 H NMR spectrum showing the signals due to the aromatic proton of His 9 and Phe 2 is illustrated in FIG. 10 (bottom). Addition of two molar equivalents of NOBA results in the loss of the signals due to zinc-bound histidine (denoted by *) and the appearance of broad signals representative of zinc-free histidine (denoted by +). Other signals in the spectrum are due to NOBA protons. […] By comparison, a 10-fold molar excess of EDTA is required to remove zinc from Zn(HIV-1-F1), Summers, et al., J. Cell Biochem 45:41-48 (1991).

HL-60 cells = test: colony formation (CFU) of leukemic cells in semi-solid medium (FIG. 4); type: cell-based, human
Description: as §1

NC(=O)c1cccc(N=O)c1 [NOBA, 3-nitrosobenzamide]
anti-tumor and anti-HIV activity (anti-tumor and anti-HIV): highly active
inhibition of thymidine uptake (H9 cells): almost complete inhibition
Virus Titer (log ID50) (HIV-1): 1.05 log ID50
effect on zinc finger nucleic acid complex [1]: ejection of zinc with concomitant dissociation of the zinc finger nucleic acid complex; also recorded: NOBA-induced zinc ejection leads to loss of high-affinity nucleic acid binding function
effect on colony formation by normal cells ([2]; anti-leukemic doses, rhesus bone marrow and human peripheral blood stem cells, FIG. 5): minimal effect on normal cells
effect on viability of normal cells ([2]; tumor cell inhibitory concentrations): not to affect adversely the viability of normal cells
cell killing (855-2 cells): complete killing
reduction in superoxide generation (Human Neutrophils): Only minor reductions
Generation of Superoxide by Human Neutrophils (Human Neutrophils; mean + S.D., n = 11, PMN + PMA): 44.4 ± 10.0 nmol 02^- /hr/10^5 cells
inhibition of 3H-thymidine uptake [3]: powerfully inhibited
CFU stem cell toxicity [4]: non-toxic
loss of viral proteins in the pellet ([5]; 3000 or 6000 μM, 37° C., p24, gp120 RIA, SDS-PAGE): No significant loss of viral proteins
loss of infectivity ([5]; concentrated HIV-1 (60x)): complete loss of infectivity
losses of viral zinc ([5]; concentrated HIV-1 (60x)): 50-83%
effectiveness against tumor cells [6]: highly effective
time to complete ejection of zinc (Zn(HIV1-F1); 2 mM NOBA, 1 mM Zn(HIV1-F1), D2O, pH*=6.2, 30° C.): 90 min
NOBA remaining unreacted on completion (Zn(HIV1-F1); 2 mM NOBA, t=90 min): 50%
stoichiometry of reaction (Zn(HIV1-F1); after 90 minutes): reacts stoichiometrically with Zn(HIV1-F1)
zinc-bound His signals (Zn(HIV1-F1); two molar equivalents, after 90 min.): no signals attributable to the zinc-bound His could be detected
ability to form colonies (CFU) (HL-60 cells): inhibit the ability
